Measurements reported in patent publication US11242337B2, “Compounds useful for treating gastrointestinal tract disorders” (Ardelyx, Inc., priority 2017, dated 2022).

Assays:
NHE3 [1] = molecular target: T1, NHE3 (Homo sapiens, UniProt P48764); test: Cell-based assay of NHE-3 activity (pre-incubation inhibition), human; details: human Preincubation; for IC50 / pIC50: 0-30 μM test compound
T1 construct: expressed in transfected cells
T1 sequence (P48764 26-834): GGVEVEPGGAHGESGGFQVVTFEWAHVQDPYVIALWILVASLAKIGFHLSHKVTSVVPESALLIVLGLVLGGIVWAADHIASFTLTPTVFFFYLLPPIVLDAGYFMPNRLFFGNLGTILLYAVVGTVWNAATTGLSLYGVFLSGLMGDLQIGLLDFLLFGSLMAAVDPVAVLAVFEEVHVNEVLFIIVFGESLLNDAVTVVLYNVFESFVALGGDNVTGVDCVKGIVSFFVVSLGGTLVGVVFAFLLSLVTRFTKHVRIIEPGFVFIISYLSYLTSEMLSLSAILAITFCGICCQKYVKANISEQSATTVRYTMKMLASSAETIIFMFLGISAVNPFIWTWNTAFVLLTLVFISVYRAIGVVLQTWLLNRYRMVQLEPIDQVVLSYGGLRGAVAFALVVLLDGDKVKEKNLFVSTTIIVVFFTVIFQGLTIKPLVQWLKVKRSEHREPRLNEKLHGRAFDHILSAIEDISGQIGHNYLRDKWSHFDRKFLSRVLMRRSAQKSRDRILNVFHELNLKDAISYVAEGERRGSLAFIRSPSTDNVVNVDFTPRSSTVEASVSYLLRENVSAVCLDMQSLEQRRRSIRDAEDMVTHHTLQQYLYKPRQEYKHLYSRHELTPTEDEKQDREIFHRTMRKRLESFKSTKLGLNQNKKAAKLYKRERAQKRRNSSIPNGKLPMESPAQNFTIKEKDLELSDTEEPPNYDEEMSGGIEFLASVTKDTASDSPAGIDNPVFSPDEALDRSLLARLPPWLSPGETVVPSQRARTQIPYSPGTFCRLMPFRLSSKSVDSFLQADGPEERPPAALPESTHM
T1 sequence (Q99653 2-195 partner limits assumed): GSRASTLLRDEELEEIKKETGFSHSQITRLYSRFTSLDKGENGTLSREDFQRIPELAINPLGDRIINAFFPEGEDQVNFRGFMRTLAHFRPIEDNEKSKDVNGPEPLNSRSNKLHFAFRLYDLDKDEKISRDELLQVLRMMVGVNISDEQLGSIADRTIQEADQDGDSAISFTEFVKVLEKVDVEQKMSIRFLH
Procedure, shortened: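 Activity read as initial rate of BCECF fluorescence ratio change per minute (ex 439/505, em 538 nm) following NH4Cl prepulse acid loading. Compound (0–30 μM) present during 10 min Na+-free acidification at room temperature; cells were PS120 fibroblasts stably co-expressing human NHE3 and NHERF2.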

NHE3 [2] = molecular target: T1, NHE3; test: Cell-based assay of NHE-3 activity (persistent inhibition), human; details: human Persistence, 60 min incubation then washout
Procedure, shortened: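 Persistent inhibition: compound (0-30 μM, 60 min, RT, NaCl-HEPES pH 7.4) removed before assay. Human NHE3/NHERF2 PS120 cells were then BCECF-loaded during NH4Cl pulse (30 min, 37 °C), acidified in Na+-free buffer, and Na+ added 10 min after washout; antiport measured as initial fluorescence-ratio change per minute.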

Compound | % inhibition (NHE3 [1]) | IC50 (NHE3 [1]) | % inhibition (NHE3 [2]) | IC50 (NHE3 [2]) | pIC50 (NHE3 [1]) | pIC50 (NHE3 [2])
N[C@@H]1CCCN([C@H]2Cc3c(Cl)cc(Cl)cc3[C@@H]2Oc2ccc(S(=O)(=O)NCCCCn3cc(CNC(=O)NCCCCNC(=O)NCc4cn(CCCCNS(=O)(=O)c5ccc(O[C@H]6c7cc(Cl)cc(Cl)c7C[C@@H]6N6CCC[C@@H](N)C6)cc5)nn4)nn3)cc2)C1 [Example 58, 3-[(1-[4-[(4-[[(1S,2S)-2-[(3R)-3-Aminopiperidin-1-yl]-4,6-dichloro-2,3-dihydro-1H-inden-1-yl]oxy]benzene)sulfonamido]butyl]-1H-1,2,3-triazol-4-yl)methyl]-1-[4-([[(1-[4-[(4-[[(1S,2S)-2-[(3R)-3-aminopiperidin-1-yl]-4,6-dichloro-2,3-dihydro-1H-inden-1-yl]oxy]benzene)sulfonamido]butyl]-1H-1,2,3-triazol-4-yl)methyl]carbamoyl]amino)butyl]urea] | C (>70%) | < 100 nM | C (>70%) | < 100 nM | – | –
N[C@@H]1CCCN([C@H]2Cc3c(Cl)cc(Cl)cc3[C@@H]2Oc2ccc(S(=O)(=O)NCCCCCCn3cc(CNC(=O)NCCCCNC(=O)NCc4cn(CCCCCCNS(=O)(=O)c5ccc(O[C@H]6c7cc(Cl)cc(Cl)c7C[C@@H]6N6CCC[C@@H](N)C6)cc5)nn4)nn3)cc2)C1 [Example 59, 3-[(1-[6-[(4-[[(1S,2S)-2-[(3R)-3-Aminopiperidin-1-yl]-4,6-dichloro-2,3-dihydro-1H-inden-1-yl]oxy]benzene)sulfonamido]-hexyl]-1H-1,2,3-triazol-4-yl)methyl]-1-[4-([[(1-[6-[(4-[[(1S,2S)-2-[(3R)-3-aminopiperidin-1-yl]-4,6-dichloro-2,3-dihydro-1H-inden-1-yl]oxy]benzene)sulfonamido]hexyl]-1H-1,2,3-triazol-4-yl)methyl]carbamoyl]amino)butyl]urea] | C (>70%) | – | C (>70%) | – | – | –
CC1(C)O[C@H]2[C@@H](OC(C)(C)O[C@H]2C(=O)NCc2cn(CCCCNS(=O)(=O)c3ccc(O[C@H]4c5cc(Cl)cc(Cl)c5C[C@@H]4N4CCC[C@@H](N)C4)cc3)nn2)[C@@H](C(=O)NCc2cn(CCCCNS(=O)(=O)c3ccc(O[C@H]4c5cc(Cl)cc(Cl)c5C[C@@H]4N4CCC[C@@H](N)C4)cc3)nn2)O1 [Example 60, (4R,4aS,8S,8aR)—N^4,N^8-Bis([1-(4-[4-((1S,2S)-2-[(3R)-3-aminopiperidin-1-yl]-4,6-dichloro-2,3-dihydro-1H-inden-1-yloxy)phenylsulfonamide]butyl)-1H-1,2,3-traizol-4-yl]methyl)-2,2,6,6-tetramethyl-tetrahydro-[1,3]dioxino[5,4-d][1,3]dioxine-4,8-dicarboxamide] | C (>70%) | – | C (>70%) | – | C (NHE3 pIC50 > 7) | C (NHE3 pIC50 > 7)
N[C@@H]1CCCN([C@H]2Cc3c(Cl)cc(Cl)cc3[C@@H]2Oc2ccc(S(=O)(=O)NCCCCCCCCNC(=O)NCCCCNC(=O)NCCCCCCCCNS(=O)(=O)c3ccc(O[C@H]4c5cc(Cl)cc(Cl)c5C[C@@H]4N4CCC[C@@H](N)C4)cc3)cc2)C1 [Example 62, 3-[8-[(4-[[(1S,2S)-2-[(3R)-3-Aminopiperidin-1-yl]-4,6-dichloro-2,3-dihydro-1H-inden-1-yl]oxy]benzene)sulfonamido]octyl]-1-[4-[([8-[(4-[[(1S,2S)-2-[(3R)-3-aminopiperidin-1-yl]-4,6-dichloro-2,3-dihydro-1H-inden-1-yl]oxy]benzene)sulfonamido]octyl]carbamoyl)amino]butyl]urea; bis(trifluoroacetic acid)] | C (>70%) | < 100 nM | A (NHE3 < 40%) | > 1000 nM | – | –
Cc1cc(S(=O)(=O)NCCCCCCCCNC(=O)NCCCCNC(=O)NCCCCCCCCNS(=O)(=O)c2ccc(O[C@H]3c4cc(Cl)cc(Cl)c4C[C@@H]3N3CCC[C@@H](N)C3)c(C)c2)ccc1O[C@H]1c2cc(Cl)cc(Cl)c2C[C@@H]1N1CCC[C@@H](N)C1 [Example 63, 3-[8-[(4-[[(1S,2S)-2-[(3R)-3-Aminopiperidin-1-yl]-4,6-dichloro-2,3-dihydro-1H-inden-1-yl]oxy]-3-methylbenzene)sulfonamido]octyl]-1-[4-[([8-[(4-[[(1S,2S)-2-[(3R)-3-aminopiperidin-1-yl]-4,6-dichloro-2,3-dihydro-1H-inden-1-yl]oxy]-3-methylbenzene)sulfonamide]octyl]carbamoyl)amino]butyl]urea] | B (40-70%) | – | B (40-70%) | 100 to 1000 nM | C (NHE3 pIC50 > 7) | –
CN(C)[C@H]1Cc2c(Cl)cc(Cl)cc2[C@@H]1Oc1ccc(S(=O)(=O)NCCCCCCCCNC(=O)NCCCCNC(=O)NCCCCCCCCNS(=O)(=O)c2ccc(O[C@H]3c4cc(Cl)cc(Cl)c4C[C@@H]3N(C)C)cc2)cc1 [Example 64, 3-[8-[(4-[[(1S,2S)-4,6-Dichloro-2-(diamethylamino)-2,3-dihydro-1H-inden-1-yl]oxy]benzene)sulfonamido]octyl]-1-[4-[([8-[(4-[[(1S,2S)-4,6-dichloro-2-(diamethylamino)-2,3-dihydro-1H-inden-1-yl]oxy]benzene)sulfonamido]octyl]carbamoyl)amino]butyl]urea; bis(trifluoroacetic acid)] | A (NHE3 < 40%) | – | A (NHE3 < 40%) | – | – | –
Cc1cc(S(=O)(=O)NCCCCCCCCNC(=O)NCCCCNC(=O)NCCCCCCCCNS(=O)(=O)c2ccc(O[C@H]3c4cc(Cl)cc(Cl)c4C[C@@H]3N(C)C)c(C)c2)ccc1O[C@H]1c2cc(Cl)cc(Cl)c2C[C@@H]1N(C)C [Example 65, 3-[8-[(4-[[(1S,2S)-4,6-Dichloro-2-(dimethylamino)-2,3-dihydro-1H-inden-1-yl]oxy]-3-methylbenzene)sulfonamido]octyl]-1-[4-[([8-[(4-[[(1S,2S)-4,6-dichloro-2-(dimethylamino)-2,3-dihydro-1H-inden-1-yl]oxy]-3-methylbenzene)sulfonamido]octyl]carbamoyl)amino]butyl]urea] | A (NHE3 < 40%) | – | A (NHE3 < 40%) | – | – | –
C[C@@H]1CCCCN1[C@H]1Cc2c(Cl)cc(Cl)cc2[C@@H]1Oc1ccc(S(=O)(=O)NCCOCCOCCNC(=O)NCCCCNC(=O)NCCOCCOCCNS(=O)(=O)c2ccc(O[C@H]3c4cc(Cl)cc(Cl)c4C[C@@H]3N3CCCC[C@H]3C)cc2)cc1 [Example 66, 3-[2-(2-[2-[(4-[[(1S,2S)-4,6-Dichloro-2-[(2R)-2-methylpiperidin-1-yl]-2,3-dihydro-1H-inden-1-yl]oxy]benzene)sulfonamido]ethoxy]ethoxy)ethyl]-1-[4-([[2-(2-[2-[(4-[[(1S,2S)-4,6-dichloro-2-[(2R)-2-methylpiperidin-1-yl]-2,3-dihydro-1H-inden-1-yl]oxy]benzene)sulfonamido]ethoxy]ethoxy)ethyl]carbamoyl]amino)butyl]urea] | A (NHE3 < 40%) | – | A (NHE3 < 40%) | – | A (NHE3 pIC50 < 6) | A (NHE3 pIC50 < 6)
C[C@H]1CCCCN1[C@H]1Cc2c(Cl)cc(Cl)cc2[C@@H]1Oc1ccc(S(=O)(=O)NCCOCCOCCNC(=O)NCCCCNC(=O)NCCOCCOCCNS(=O)(=O)c2ccc(O[C@H]3c4cc(Cl)cc(Cl)c4C[C@@H]3N3CCCC[C@@H]3C)cc2)cc1 [Example 67, 3-[2-(2-[2-[(4-[[(1S,2S)-4,6-Dichloro-2-[(2S)-2-methylpiperidin-1-yl]-2,3-dihydro-1H-inden-1-yl]oxy]benzene)sulfonamido]ethoxy]ethoxy)ethyl]-1-[4-([[2-(2-[2-[(4-[[(1S,2S)-4,6-dichloro-2-[(2S)-2-methylpiperidin-1-yl]-2,3-dihydro-1H-inden-1-yl]oxy]benzene)sulfonamide]ethoxy]ethoxy)ethyl]carbamoyl]amino)butyl]urea] | C (>70%) | 100 to 1000 nM | B (40-70%) | 100 to 1000 nM | – | –
